In patent publication US7745493B2, “Methods of treating tardive dyskinesia and other movement disorders” (priority 1998, dated 2010):

What was measured:
[1] = test system: person two with long-standing TD; assay: Choice Reaction Time (Case 1); type: in vivo, human; conditions: lower score better
From the text: (§1) The tests showing such results included Simple Reaction Time, the Trail Making Test (both parts) and the Paced Auditory Serial Addition Test (PASAT). Choice reaction time, a test requiring both basic attention and concentration on a specific task that must be kept in mind, was slightly better on acamprosate, consistent with the hypothesis that general cognitive function, as opposed to simple attention, improves with acamprosate treatment.
(§2) The following tables report on the results of the neuropsychological tests (Drug I is memantine and Drug II is acamprosate): […]

[2] = test system: person two with long-standing TD; assay: Paced Auditory Serial Addition Test (PASAT) (Case 1); type: in vivo, human; conditions: lower score better
From the text: as §1, §2

[3] = test system: person two with chronic schizophrenia and severe tardive dyskinesia; assay: Case Report 6: clinical observation of severe TD with blepharospasm in chronic schizophrenia; type: in vivo; conditions: Case 6
From the text: A corresponding physician the United Kingdom recently reported to me on the treatment of a person with chronic schizophrenia and severe tardive dyskinesia. As in Case 1, the patient's involuntary movements included severe blepharospasm. In addition, they had involuntary rhythmic peri-oral movements, and chorea-like movements of both hands, like the patient in Case 2. They had no cognitive complaints, nor were cognitive abnormalities noted on routine psychiatric examination.
The patient had developed symptoms of paranoid schizophrenia in 1991. The symptoms of psychosis included auditory hallucinations, bizarre delusions, and persecutory fears. […] They were subsequently hospitalized and stabilized on fluphenthixol decanoate, a depot neuroleptic given by intramuscular injections. Symptoms of TD developed in November, 1994, after 28 months of neuroleptic therapy. […] Beginning in October 1997 the patient was treated for their schizophrenia with 2 mg of risperidone alone. On this modest dose of an atypical neuroleptic, they had severe symptoms of TD for which they eagerly sought treatment.
Memantine was started on November 28, 1997 at a dose of 5 mg per day, increased after 7 days to 5 mg twice a day, and after another 7 days to 5 mg three times a day. […] Further dosage increases were attempted to completely abolish the involuntary movements. The maximum dose attainable without side effects was 10 mg twice a day; above that level the patient had complaints of dizziness. That dose of memantine was maintained through May of […].
In May 1998 the patient was started on acamprosate, in pursuit of complete elimination of their involuntary movements. Initially, acamprosate 333 mg three times a day was added to memantine 10 mg twice a day.

[4] = test system: person two with long-standing TD; assay: Motor Functions: Grooved Functions (Case 1); type: in vivo, human; conditions: ON drug, lower score better; for Grooved Functions sec. DH: DH = right
From the text: as §2

[5] = test system: person two with long-standing TD; assay: Trail Making Test, Trails A (Case 1); type: in vivo, human; conditions: lower score better
From the text: as §1, §2

[6] = test system: person two with long-standing TD; assay: Simple Reaction Time (neuropsychological test, Case 1); type: in vivo, human; conditions: lower score better
Experimental: On acamprosate, the patient was able to sustain concentration for prolonged periods. […] The patient's cognitive improvement was also assessed using formal neuropsychological measures. The patient was tested while on the drug, then taken off of the drug and tested two days later. On the drug, the patient was able to recall 13 of the 15 items after a short delay as well as 13 of the 15 items after a long delay, as measured by the Rey Auditory Verbal Learning Test. This was in comparison to the patient's ability while off the drug to recall only 7 of the 15 items after a short delay as well as 8 of the items after a long delay in tests performed. In addition, the patient was able to recognize all 15 of the items while on acamprosate but while off the drug (and while having been off of memantine for over 2 months) the patient could only recognize 10 of the items. The order of testing would give the advantage of familiarity to the off-drug condition. Nonetheless, the difference in favor of the on-drug condition was substantial.
as §1, §2

[7] = test system: person two with Parkinson's disease and peak-dose dyskinesia; assay: Case Report 3: peak-dose dyskinesia of treated Parkinson's disease; type: in vivo, human; conditions: Case 3; for effect on peak-dose dyskinesia: added to antiparkinson regime, memantine 10 mg three times a day, acamprosate 666 mg three times, then 333 mg four times a day, baclofen 30 and 60 mg daily, magnesium 300 mg three times a day
Experimental: The patient's Parkinson's disease was treated using levodopa/carbidopa and bromocriptine.
Prior to beginning treatment with acamprosate, the patient was on an antiparkinson treatment regime that consisted of 1 mg of pergolide three times a day, 5 mg of selegiline twice a day, and a combination of levodopa/carbidopa consisting of 550-600 mg of levodopa and 125-150 mg of carbidopa administered in divided doses.
The patient began acamprosate as an addition to the antiparkinson regime described above. Initially, the patient received 666 mg of acamprosate administered three times a day. Two weeks later the regime was adjusted such that the patient received 333 mg of acamprosate four times a day, taking one 333 mg pill with each daytime dose of 100 mg levodopa and 25 mg carbidopa. The patient's bedtime does of controlled-release levodopa-carbidopa (200 mg of levodopa and 50 mg of carbidopa) was continued, but were given without acamprosate. […] To confirm that the patient's improvement was due to the administration of acamprosate, the patient was taken off the acamprosate. […] During the period off acamprosate, an attempt was made to replace acamprosate with baclofen (a GABA-receptor agonist) at a total daily dose of 30 mg, and then with baclofen at a total daily dose of 60 mg.
Several months later, magnesium (300 mg elemental magnesium, as a mixed chelate), was added to the regimen. It was taken three times a day, together with a one of the patient's regular doses of levodopa/carbidopa. […] To establish whether the improvement was due to magnesium, the magnesium was stopped after several weeks.

[8] = test system: person two with long-standing TD; assay: Trail Making Test, Trails B (Case 1); type: in vivo, human; conditions: ON drug; for Trails B Seconds: lower score better
From the text: as §1, §2

With `CC(=O)NCCCS(=O)(=O)O` [acamprosate, calcium N-acetylhomotaurinate] the “Choice Reaction Time 500 Green” value ([1]; ON drug) was 382 ms, the “Choice Reaction Time 500 Red” value ([1]; ON drug) was 426 ms and the “Choice Reaction Time 1500 Green” value ([1]; ON drug) was 408 ms. For the same compound, the “Choice Reaction Time 1500 Red” value ([1]; ON drug) was 379 ms, the “PASAT 1.2 sec ISI errors” value ([2]; ON drug) was 13/49 and the “PASAT 1.6 sec ISI errors” value ([2]; ON drug) was 11/49. For the same compound, the “PASAT 2.0 sec ISI errors” value ([2]; ON drug) was 1/49, the “PASAT 2.4 sec ISI errors” value ([2]; ON drug) was 4/49 and the peri-oral movements ([3]; 333 mg three times a day added to memantine 10 mg twice a day) was “peri-oral movements were eliminated”. The “involuntary movements on acamprosate alone” value ([3]; after memantine discontinued) was “continued free of involuntary movements”, the “Grooved Functions sec. DH” value [4] was “DH = 61″” and the “Grooved Functions sec. NDH” value [4] was “NDH = 70″”. For the same compound, the “Trails A Errors” value ([5]; ON drug) was 0, the “Trails A Seconds” value ([5]; ON drug) was 20″ and the “Simple Reaction Time 500 Green” value ([6]; ON drug) was 286 ms. The “Simple Reaction Time 500 Red” value ([6]; ON drug) was 272 ms, the “Simple Reaction Time 1500 Green” value ([6]; ON drug) was 261 ms and the “Simple Reaction Time 1500 Red” value ([6]; ON drug) was 264 ms. For the same compound, the “effect on levodopa/carbidopa treatment of hypokinesia and rigidity” value [7] was “no decrease in the efficacy”, the “periods without dyskinesia following each dose” value [7] was “up to two hours” and the “time to return of dyskinetic movements after stopping” value [7] was “Within one day”. The “effect on peak-dose dyskinesia” value [7] was “reduced from moderate to mild intensity”, the “Trails B Errors” value [8] was 0 and the “Trails B Seconds” value [8] was 43″.
With `CC12CC3CC(C)(C1)CC(N)(C3)C2` [memantine] the “Choice Reaction Time 500 Green” value [1] was 362 ms, the “Choice Reaction Time 500 Red” value [1] was 421 ms and the “Choice Reaction Time 1500 Green” value [1] was 365 ms. The “Choice Reaction Time 1500 Red” value [1] was 422 ms, the “PASAT 1.2 sec ISI errors” value [2] was 28/49 and the “PASAT 1.6 sec ISI errors” value [2] was 21/49. The “PASAT 2.0 sec ISI errors” value [2] was 17/49, the “PASAT 2.4 sec ISI errors” value [2] was 13/49 and the “maximum dose attainable without side effects” value [3] was 10 mg twice a day. For the same compound, the involuntary movements ([3]; 5 mg three times a day) was “virtually no involuntary movements noted at the peak of a given dose”, the “blepharospasm after first two weeks” value ([3]; 5 mg twice a day) was “marked improvement in blepharospasm” and the “involuntary movements after 6 months of treatment” value ([3]; 10 mg twice a day) was “no blepharospasm or limb chorea, and only mild peri-oral movements”. For the same compound, the “complaints above maximum tolerated dose” value ([3]; above 10 mg twice a day) was “dizziness”, the “Grooved Functions sec. DH” value [4] was “DH = 71″” and the “Grooved Functions sec. NDH” value [4] was “NDH = 70″”. The “Trails A Errors” value [5] was 0, the “Trails A Seconds” value [5] was 28″ and the “Simple Reaction Time 500 Green” value [6] was 284 ms. For the same compound, the “Simple Reaction Time 500 Red” value [6] was 266 ms, the “Simple Reaction Time 1500 Green” value [6] was 212 ms and the “Simple Reaction Time 1500 Red” value [6] was 224 ms. The “effect on peak-dose dyskinesia” value [7] was “reduced their dyskinetic movements from severe to mild-to-moderate”, the “Trails B Errors” value [8] was 0 and the “Trails B Seconds” value [8] was 118″.
